Measurements from patent publication US7875638B2, “Synthesis of epothilones, intermediates thereto, analogues and uses thereof” (Sloan-Kettering Institute for Cancer Research, priority 2002, dated 2011).
Where “and” joins values, the source holds several entries; their conditions need not be identical. Equal entries are not always repeated. Where two headings read alike, the source gives them in different places.

What was measured:
[1] = Octanol-water partition (POW) number by HPLC; format: physicochemical; conditions: HPLC estimate, pH 7.4 buffer; read-out: Lipophilicity octanol/water partition (POW)
Method: Determination of partition of octanol-water (POW) number. An HPLC method is used to estimate octanol-water partition. An Agilent 1100 HPLC system is used with an eclipse XDB C18 column 4.6×250 mm with a mobile phase of 60% acetonitrile/40% 25 mM potassium phosphate buffer at pH 7.4 with a flow rate of 0.8 ml per min. and the eluent is monitored at 250 nm. The standards used are benzyl alcohol, acetophenone, benzophenone, naphthalene, diphenyl ether and dibenzyl with known POW of […] respectively. Sodium dichromate is used to evaluate time zero which is 2.5 min and the retention times for the standards are 3.9, 5.4, 10.6, 14, 18.7 and 19.8 min, respectively. The k value is calculated by the formula of k=(trt−t0)/t0. Linear regression of log k vs. log POW gives a straight line with r^2=0.966. This graph is used to evaluate the POW value of the epothilone analogs.

[2] = tested on: human T-cell lymphoblastic leukemia CCRF-CEM/Taxol xenograft; test: CCRF-CEM/Taxol xenograft in nude mice; format: in vivo
[3] = tested on: CCRF-CEM/Taxol; format: cell-based, human; conditions: Homo sapiens, CCRF-CEM, XTT assay following 72 h inhibition
[4] = tested on: lymphoma lines (SKIDLBCL and RL); test: XTT cell proliferation, lymphoma lines; format: cell-based, human
[5] = tested on: HS-5; test: XTT cell growth inhibition, HS-5; format: cell-based; conditions: Homo sapiens, HS5; Marrow stroma; XTT tetrazonium assay; read-out: IC50 (nM), HS-5
[6] = tested on: paclitaxel resistant human lung carcinoma A549/Taxol xenograft; test: A549/Taxol xenograft in nude mice
[7] = tested on: Ovcar-3; test: XTT cell growth inhibition, Ovcar-3; format: cell-based; conditions: Homo sapiens, OVCAR-3; Ovarian Ca; XTT tetrazonium assay; read-out: IC50 (nM), Ovcar-3
[8] = tested on: Human marrow stromal cell lines, HS-27A and HS-5; test: XTT cell proliferation, normal stromal cells; conditions: read-out: IC50, stromal lines HS-27A and HS-5
Source text: Human marrow stromal cell lines, HS-27A and HS-5 immortalized by E6/E7 genes, have normal marrow stromal function, which support stem cell self-renewal, and proliferation.

[9] = tested on: paclitaxel resistant human lung carcinoma A549/Taxol xenograft; conditions: 20 mg/kg, Q2Dx7, 6 hr-i.v. infusion; cited from earlier work
[10] = tested on: RPMI-8226 (human multiple myeloma cell line); test: Global gene expression (Affymetrix chip AU133 2.0); format: cell-based
[11] = tested on: RPMI8226; test: XTT cell growth inhibition, RPMI8226; format: cell-based; conditions: Homo sapiens, RPMI-8226; Myeloma; XTT tetrazonium assay; read-out: IC50 (nM), RPMI8226
[12] = tested on: OPM-2 myeloma cells; test: Cell cycle analysis (propidium iodide DNA staining), OPM-2; format: cell-based, human
Source text: FIG. 95 is cell cycle analysis as determined by Propidium iodide DNA staining. […] The two drugs induced the same patter of cell cycle arrest.

[13] = tested on: paclitaxel resistant human lung carcinoma A549/Taxol xenograft; conditions: 20 mg/kg
[14] = tested on: human colon carcinoma HCT-116 xenograft; conditions: 96 h
[15] = tested on: human xenografts in nude mice, such as MX-1; set-up: Relative therapuetic index at MTD: key to the marks not given beside the values
[16] = tested on: IGROV; test: XTT cell growth inhibition, IGROV; format: cell-based; conditions: Homo sapiens, Ovarian Ca, XTT tetrazonium assay, read-out: IC50 (nM), IGROV
[17] = tested on: HT-29; test: XTT cell growth inhibition, HT-29; format: cell-based; conditions: Homo sapiens, HT-29; Colon Ca; XTT tetrazonium assay; read-out: IC50 (nM), HT-29
[18] = tested on: caspase 3; test: Caspase 3 activation by Western blot; format: cell-based, human; conditions: myeloma cells
Source text: It is not clear whether caspase is involved in this process. Firstly, we investigated the activation of caspase 3, an effector caspase in the caspase pathway, in myeloma cells, by Western blot. […] Immunohistochemical staining of CAG myeloma cells using antibody specific to cleaved caspase-3 was used to show cytoplasmic and perinuclear localization features in apoptotic cells. […] Secondly, we attempted to assay the activity of caspase 8 and 9, initiator caspase in the caspase pathway, by fluorometric method. […] Note that increased caspase 9 activity was more prominent than caspase 8. The signals triggering the activation of caspase 8 or 9 are actively under investigation.

[19] = 6 hr gene difference, Fludelone vs dEpoB treated cells
[20] = 18 hr gene difference, Fludelone vs dEpoB treated cells

C/C(=C\c1csc(C)n1)[C@@H]1C/C=C(/C(F)(F)F)C/C=C/[C@H](C)[C@H](O)[C@@H](C)C(=O)C(C)(C)[C@@H](O)CC(=O)O1 [Compound 29, 26-trifluoro-trans-9,10-dehydro-12,13-desoxyepothilone B]
chromatographic logP [1]: 3.3 | Final tumor suppression on D34 ([2]; 15 mg/kg): 98.8% | Tumor disappearance (mice) ([2]; 15 mg/kg, 6 hr-i.v. infusion, Q2Dx7 then Q2Dx5): 1 out of 4 | Tumor disappearance (mice) ([2]; 15 mg/kg, 6 hr-i.v. infusion, Q2Dx7 then Q2Dx5, listed as 26-F3-9,10-deH-dEpo B): 1/3 | Tumor disappearance (mice) ([2]; 15 mg/kg, 6 hr-i.v. infusion, Q2Dx7 then Q2Dx5, listed as Fludelone): 1/3 | Tumor disappearance (mice) ([2]; 30 mg/kg Q2Dx7, 6 hr-i.v. infusion (first cycle)): 2 out of 4 | Tumor disappearance (mice) ([2]; 30 mg/kg, 6 hr-i.v. infusion, Q2Dx7 then Q2Dx5, listed as 26-F3-9,10-deH-dEpo B): ¾ | Tumor disappearance (mice) ([2]; 30 mg/kg, 6 hr-i.v. infusion, Q2Dx7 then Q2Dx5, listed as Fludelone): 3 out of 4 and 3/4 | Final tumor suppression ([2]; 30 mg/kg, Q2Dx7 then Q2Dx5): 99.8% | IC50 ([3]; Table 1-2, read-out: IC50 (μM), CCRF-CEM/Taxol): 0.0057 µM | IC50 ([3]; Table 1-3, read-out: IC50, C/Taxol): 0.0057 µM | Inhibitory doses in two NHL lines relative to doses effective in MM [4]: 5-10 fold | IC50 ([4]; Homo sapiens, XTT): 60 to 80 nM | IC50 [5]: 96 ± 7 nM | Body weight recovery upon suspension of drug treatment, % of the pretreatment control ([6]; 20 mg/kg): 90% | Maximal body weight decrease ([6]; 20 mg/kg): 24% | Tumor growth suppression ([6]; 29: 20 mg/kg, 28: 4 mg/kg): totally suppressed | IC50 [7]: 1.1 ± 0.4 nM | IC50 [8]: 90 to 100 nM | Effect on A549/Taxol xenograft (recent report) [9]: complete tumor growth suppression but failed to achieve tumor disappearance | Fold change in expression, APP ([10]; 6 h): +2.14 fold | Fold change in expression, BASP1 ([10]; 6 h): +2.83 fold | Fold change in expression, HIST1 ([10]; 6 h): −2.00 fold | Fold change in expression, HNRPD ([10]; 6 h): −2.46 fold | Fold change in expression, JUN ([10]; 6 h): +3.25 fold | Fold change in expression, SKIL ([10]; 6 h): +2.83 fold | Fold change in expression, SUV39 H2 ([10]; 6 h): −2.00 fold | Fold change, AIM2 ([10]; 6 h): −2.64 fold | Fold change, BCL3 ([10]; 6 h): +3.25 fold | Fold change, CA4 ([10]; 6 h): −2.14 fold | Fold change, HLA-II DPα ([10]; 6 h): −3.73 fold | Fold change, Heme oxygenase ([10]; 6 h): +2.30 fold | Fold change, PTPL ([10]; 6 h): −2.46 fold | Fold change, T RIM34 ([10]; 6 h): −5.66 fold | Fold change, TRIM22 ([10]; 6 h): −2.46 fold | Fold change, GIP3 [10, 19]: −6.06 fold | Fold change, IFI 27 [10, 19]: −7.46 fold | Fold change, IFTM1 [10, 19]: −4.00 fold | Fold change, MX1 [10, 19]: −2.00 fold | Fold change in expression, AIP1 ([10]; 18 h): +2.14 fold | Fold change in expression, AKAP9 ([10]; 18 h): +2.00 fold | Fold change in expression, APBB2 ([10]; 18 h): +2.00 fold | Fold change in expression, APG16L ([10]; 18 h): +2.00 fold | Fold change in expression, APRIN ([10]; 18 h): +2.00 fold | Fold change in expression, BAX ([10]; 18 h): +2.00 fold | Fold change in expression, CCL3 ([10]; 18 h): +3.48 fold | Fold change in expression, CCT8 ([10]; 18 h): +2.30 fold | Fold change in expression, CD72 ([10]; 18 h): +2.30 fold | Fold change in expression, CEB1 ([10]; 18 h): −2.30 fold | Fold change in expression, CLorf29 ([10]; 18 h): −6.06 fold | Fold change in expression, Cyclin E2 ([10]; 18 h): −2.64 fold | Fold change in expression, DNAJB1 ([10]; 18 h): +2.30 fold | Fold change in expression, DUSP6 ([10]; 18 h): −2.14 fold | Fold change in expression, EIFA1 ([10]; 18 h): +2.30 fold | Fold change in expression, ETS2 ([10]; 18 h): +2.46 fold | Fold change in expression, F11 ([10]; 18 h): −4.00 fold | Fold change in expression, FBXO5 ([10]; 18 h): −2.30 fold | Fold change in expression, FLJ20045 ([10]; 18 h): −2.46 fold | Fold change in expression, FLJ20130 ([10]; 18 h): −5.66 fold | Fold change in expression, FLJ20241 ([10]; 18 h): +3.73 fold | Fold change in expression, Fibrillin 2 ([10]; 18 h): +12.3 fold | Fold change in expression, GA17 ([10]; 18 h): +2.64 fold | Fold change in expression, GTF2H2 ([10]; 18 h): +3.03 fold | Fold change in expression, HDAC9 ([10]; 18 h): −2.00 fold | Fold change in expression, HNRPD ([10]; 18 h): −3.25 fold | Fold change in expression, HSPA1A ([10]; 18 h): +2.14 fold | Fold change in expression, HSPA1B ([10]; 18 h): +2.00 fold | Fold change in expression, JUN ([10]; 18 h): +2.64 fold | Fold change in expression, KIAA0191 protein ([10]; 18 h): +2.14 fold | Fold change in expression, KIAA1025 protein ([10]; 18 h): +3.25 fold | Fold change in expression, MADH1 ([10]; 18 h): +2.00 fold | Fold change in expression, MARS ([10]; 18 h): −2.00 fold | Fold change in expression, NRTN ([10]; 18 h): −2.3 fold | Fold change in expression, PCNX ([10]; 18 h): +3.48 fold | Fold change in expression, PHC3 ([10]; 18 h): +2.83 fold | Fold change in expression, PKD1 ([10]; 18 h): +7.46 fold | Fold change in expression, POU4F1 ([10]; 18 h): −2.14 fold | Fold change in expression, PRKCBP1 ([10]; 18 h): +2.64 fold | Fold change in expression, PRKDC ([10]; 18 h): +21.11 fold | Fold change in expression, REPS1 ([10]; 18 h): +9.85 fold | Fold change in expression, RPL23 ([10]; 18 h): +2.14 fold | Fold change in expression, SEC24D ([10]; 18 h): +2.64 fold | Fold change in expression, SEMA3D ([10]; 18 h): +2.83 fold | Fold change in expression, SERPINH1 ([10]; 18 h): +2.00 fold | Fold change in expression, SLC13A1 ([10]; 18 h): +3.03 fold | Fold change in expression, SMA3 ([10]; 18 h): +2.46 fold | Fold change in expression, TCS2 ([10]; 18 h): +2.30 fold | Fold change in expression, TMEM1 ([10]; 18 h): +2.14 fold | Fold change in expression, TRA2A ([10]; 18 h): +3.03 fold | Fold change in expression, TRIO ([10]; 18 h): +4.29 fold | Fold change in expression, VEZATIN ([10]; 18 h): +2.00 fold | Fold change in expression, ZF (HCF-binding transcription factor) ([10]; 18 h): −6.50 fold | Fold change in expression, ZFY ([10]; 18 h): +2.14 fold | Fold change, CEB1 ([10]; 18 h): −2.00 fold | Fold change, DUSP4 ([10]; 18 h): −2.14 fold | Fold change, HMT-1 ([10]; 18 h): +11.3 fold | Fold change, IFIT1 ([10]; 18 h): −2.00 fold | Fold change, OAS2 ([10]; 18 h): −2.00 fold | Fold change, PLSCR1 ([10]; 18 h): −2.00 fold | Fold change, PPAP2C ([10]; 18 h): −2.14 fold | Fold change, TRIM22 ([10]; 18 h): −2.00 fold | Fold change, GIP3 [10, 20]: −5.28 fold | Fold change, IFI 27 [10, 20]: −5.28 fold | Fold change, IFITM1 [10, 20]: −3.25 fold | Fold change, MX1 [10, 20]: −2.30 fold | Fold change in expression, G1P3 ([10]; 18 hrs, ×10 IC50 dose, vs control): −3.73 fold | IC50 [11]: 7.6 ± 1.2 nM | Cell cycle arrest [12]: arrested in G2M phase starting from 6 hours and absolutely blocked at 24 hours | Tumor reduction, % of the pretreatment control [13]: 24.4% | Cell kill [14]: > 11.6 log | Maximal b.w. % drop without death ([15]; mouse, in vivo): 33% | Relative therapuetic index at MTD ([15]; mouse, in vivo): +++++ | Curative therapeutic dose range ([15]; mouse, in vivo, iv): 10 to 30 mg/kg | Optimal dose for i.v. infusion ([15]; mouse, in vivo, iv): 20 to 30 mg/kg | Therapeutic dose regimen for Q2D 6 hr-iv infusion ([15]; mouse, in vivo, iv): 10 to 30 mg/kg | Optimal dose for the oral administration ([15]; oral): 20 mg/kg, QD or 30 mg/kg Q2D | IC50 [16]: 2 ± 1.2 nM | IC50 [17]: 4 ± 1.7 nM | Cleaved caspase 3 (Western blot) [18]: increased 17 kd cleaved caspase 3
